Patent US11938121B2, “Treatment of infections and biofilm formation using a cellulose synthase inhibitor” (Purdue Research Foundation, priority 2020, dated 2024)

Tested on: Komagataeibacter xylinus
Assay: K. xylinus cell growth on HS solid medium
Format: cell-based
Settings: 6 days
Text: Based on primary protein sequence analysis and a comparison of three-dimensional protein structures, the catalytic sites of cellulose synthases are highly conserved across kingdoms (Huang et al., 2020, Purushotham et al., 2020). The amino acids that are directly involved in glucan chain initiation, elongation, and translocation are conserved between plant and bacterial cellulose synthases (Huang et al., 2020). Based on the conservation of catalytic sites in cellulose synthases, we hypothesized that ES20 and ES20-1 would inhibit bacterial cellulose biosynthesis as well. We chose to test the effects of ES20 and ES20-1 on cell growth and cellulose production in Komagataeibacter xylinus (K. xylinus, previously known as Gluconacetobacter xylinus) because this bacterium produces abundant cellulose. We first tested whether ES20 and ES20-1 affect K. xylinus cell growth. We grew K. xylinus cells in liquid […] (HS) medium and then we inoculated 20 μL of series diluted culture to HS solid growth medium supplemented with DMSO (0.1%) or different concentrations of ES20 and ES20-1. […] We found ES20 and ES20-1 affect K. xylinus colony morphology as well. […] Wrinkles radiating structure is often observed in cellulose-producing bacteria strains and this structure is often affected when cellulose biosynthesis is disrupted.
Komagataeibacter xylinus (previously named Gluconacetobacter xylinus) ATCC strain 700178 was obtained from ATCC (Manassas, Va., USA) to evaluate cellulose production. HS (Hestrin and Schramm) medium was used for culture; HS liquid medium contains 2.0% glucose (w/v), 0.5% yeast extract (w/v), 0.5% peptone (w/v), 0.27% Na2HPO4 (w/v), and 0.15% citric acid (w/v), pH 5.0, and HS solid medium was solidified with 1.8% agar (w/v). To prepare the initial inoculation source, a single K. xylinus colony grown on HS solid medium was transferred to HS liquid medium and cultured at 26° C. for 5 days under static conditions. We used cells from the bottom of the liquid culture as the initial inoculation source to avoid biofilm aggregates at the air-liquid interface. To test the effect of ES20 and ES20-1 on the bacteria growth, initial inoculation source was series diluted and 20 μL culture from each diluted solution was dropped on HS solid medium supplemented with DMSO (0.1%) or different concentrations of ES20 and ES20-1 and cultured at 26° C. for 6 days after the dropped culture was completely dry. To test the effects of ES20 and ES20-1 on cellulose production, the prepared inoculation source was inoculated at a dilution ratio of 1:1000 dilution in HS liquid medium supplemented with 0.1% DMSO or 20 μM of ES20 or ES20-1. Static cultivation was carried out in a 26° C. incubator, and agitated cultivation was carried out at 26° C. with shaking at 220 rpm. […]

Question: For `Cc1ccccc1C(=O)NNC(=S)NC(=O)c1ccccc1` [ES20-1], which “K. xylinus cell growth inhibition” value (20 μM and 50 μM) is on record?
Answer: inhibit K. xylinus cell growth at both 20 μM and 50 μM concentrations

Question: What about the “K. xylinus colony morphology (wrinkles radiating structures)” value (20 μM) of the same compound?
Answer: the wrinkles are not obvious
